Measurements published in patent US5204475A, “Substituted 3-aminosydnone imines and salts thereof” (Cassella Aktiengesellschaft, priority 1990, dated 1993).

Test system: spiral strips of the pulmonary artery of the guinea-pig
Assay: Relaxation of potassium-depolarised, CaCl2-contracted spiral strips of the pulmonary artery of the guinea-pig (modified method of Godfraind and Kaba and of Schuman et al.)
Conditions: depolarised with 40 mmol/1 potassium, contraction by 0.5 mmol/1 CaCl2; for IC50: Cavia porcellus, cumulative addition, average of 4 to 6 vessel strips, read-out: IC50 (concentration of the test substance which inhibits the contraction by 50%)
Procedure: The pharmacological action of the compounds of the formula I was determined by a modified method of Godfraind and Kaba (Arch. Int. Pharmacodyn. Ther. I96, (Suppl) 35 to 49, 1972) and of Schuman et al. (Naunyn-Schmiedeberg's Arch Pharmacol. 289, 409 to 418, 1975). In this connection, spiral strips of the pulmonary artery of the guinea-pig are depolarised with 40 mmol/1 of potassium after equilibration in calcium-free Tyrode solution. An addition of 0.5 mmol/1 of CaCl2 then induces a contraction. The relaxing action of the test substance is determined by cumulative addition in 1/2 log 10 stepped concentrations. From the concentration-effect curve (abscissa: -log mol/1 of test substance, ordinate: % inhibition of the maximum contraction, average value of 4 to 6 vessel strips), the concentration of the test substance is determined which inhibits the contraction by 50% (=IC50, mol/1). The duration of action of the test substance is given by the time which is needed after the addition of the test substance until the starting value is obtained again.

| Structure (SMILES) | IC50 | Duration of action in minutes (time needed after addition of the test substance until the starting value is obtained again) |
| --- | --- | --- |
| Cl.N=c1c[n+](N2CCCCC2C(=O)O)[n-]o1 (stereo not drawn) [Example 1, 3-(2-Carboxypiperidino)sydnone imine hydrochloride] | 6 µM | > 300 min |
| Cl.N=c1c[n+](N2CCC(C(=O)O)CC2)[n-]o1 [Example 2, 3-(4-Carboxypiperidino)sydnone imine hydrochloride] | 24 µM | > 300 min |
| Cl.N=c1c[n+](N2CCC[C@H]2C(=O)O)[n-]o1 [Example 3, (S)-3-(2-Carboxypyrrolidino)sydnone imine hydrochloride] | 20 µM | > 300 min |
